The test system of one assay is contaminating bacteria. Description: Treatment of bacterial contamination in outdoor raceway pond mixotrophic Chlorella culture (flow cytometry). The assay is classed as cell-based. How it is done: Contamination observation (400×, 1000× oil immersion-phase contrast micrograph and cell cytometry with bacterial dying) was performed every 2 days, including a measurement of bacterial contamination by flow cytometry. For bacterial contamination measurement, to each 1 ml sample, 1 μl BacLight™ Green bacterial stain (Invitrogen, Eugene, Oreg., USA) as added, and samples were incubated at room temperature in the dark for 30 to 60 minutes. After incubation, samples were analyzed on a BD FACSAria™ (BD Biosciences, San Jose, Calif., USA) and populations of bacteria and algae were gated based on BacLight™ fluorescence and chlorophyll autofluoresence.
Chlorella sp. SNL333 was grown in a mixotrophic system in the pond raceway systems described above in Example 4. The area of the raceway photobioreactor was 5.6 m^2 with an operating volume of 568 L at a depth of […]. One unit was mixed with a pump (Reactor 1), and the other via a paddle wheel (Reactor 2). Air was delivered to the paddle wheel system via an air stone. Air was delivered to the pumped reactor via a venturi injection system. […] The nitrate level in the modified BG-11 recipe consisted of 400 mg/L, and was determined via the nitrate consumption rates from previous trials. […]
Referring to FIG. 28, the percentage of bacteria to Chlorella in the mixotrophic cultures was quantified using the procedure discussed in the previous examples. […]

A further assay deals with Chlorella sp. SNL333. Put plainly: Yield of raceway pond mixotrophic Chlorella culture after contamination treatment. The assay is classed as cell-based.
The test system of a further assay is Chlorella. Description: Mixotrophic Chlorella culture in bubbled column reactor with pH-auxostat, comparison of organic carbon sources.

Protocol for Chlorella sp. SNL333: Chlorella sp. SNL333 was grown in a mixotrophic system in the pond raceway systems described above in Example 4. The area of the raceway photobioreactor was 5.6 m^2 with an operating volume of 568 L at a depth of 15 cm. One unit was mixed with a pump (Reactor 1), and the other via a paddle wheel (Reactor 2). Air was delivered to the paddle wheel system via an air stone. Air was delivered to the pumped reactor via a venturi injection system. Eductors were used in the pumped reactor to increase water velocity and enhance oxygen transfer of the liquid medium. […] The nitrate level in the modified BG-11 recipe consisted of 400 mg/L, and was determined via the nitrate consumption rates from previous trials.
Nitrate levels were adjusted towards the end of the trial to maintain residual nitrate in the system (400 mg/L). Harvests occurred daily throughout the trials. Harvest consisted of 50% of the culture volume daily, with an 80% harvest occurring on day 7. The total trial lasted 12 days for Reactor 1 and 10 days for Reactor 2.
Treatments to control the bacterial population occurred at the time indicated by the vertical dashed line. Reactor 1 received an ozone treatment, and Reactor 2 received an antibiotic treatment. At 190 hours the make-up water for refilling the system was sterilized by chlorination prior to being added to the culture. […]
Protocol for E. coli: 200 ml of bacteria inoculum from a bacteria contaminated photobioreactor was added to 200 ml of BG-11 culture medium. The solution was split in half, with the first solution receiving 6.84 g of glucose and the second solution receiving 5 g of sodium acetate. The pH and optical density of both solutions was taken. The two solutions were each split into three groups of three separate 100 ml volumes, for a control, 10 mMH2O2, and 20 mMH2O2 treatments. Each volume had 2.092 g of MOPS buffer (Sigma Chemical St. Louis, Mo.), and then placed in an incubator set at 27° C., 96 rpm, and 100 μmol/m^2 s of LED light. The volumes were incubated overnight, then brought to a pH of 7.5 using 10 M NaOH and optical density was measured. The treatments of 10 mM H2O2 and 20 mM H2O2 were then added and incubated for 24 h. Optical density and pH were then measured, and methionine was added to one volume of each treatment. Optical density and pH were measured again on the third day and the sixth day before microscope analysis on the sixth day.
The bacteria cultures in glucose and sodium acetate were treated with 0 mM H2O2 (control), 1 mM H2O2, 2.5 mM H2O2, and 5 mM H2O2.

Turning to `O=[O+][O-]` [ozone], in the assay with contaminating bacteria (after the treatment (ozone 0.10-0.20 mg/L for 17 h; antibiotic mix of Table 4)), the “percentage of bacteria to Chlorella after treatment” value came to 1.4%. For the same compound, in the assay with contaminating bacteria (before the treatment), the “percentage of bacteria to Chlorella before treatment” value is listed as 6.5%. For the same compound, the “average yield for the three days after the treatment” value in the assay with Chlorella sp. SNL333 worked out at 105 g/m^2 d.

Regarding `OO` [H2O2, hydrogen peroxide], in the assay with E. coli (10 mM and 20 mM H2O2, glucose and acetate mediums, 20 mM greater effect than 10 mM), the “effect on growth of bacteria cultures” value was “negatively affected the growth of bacteria cultures in both glucose and acetate mediums”. In addition, the “inhibitory effect on growth of the bacteria versus H2O2 concentration” value with E. coli (1, 2.5 and 5 mM H2O2, one time treatment, glucose and sodium acetate cultures, growth eventually recovers) was “inhibitory effect on the growth of the bacteria increased”.

`CC(=O)O` [Acetic Acid, acetic acid]: the “Mixotrophic Chlorella Daily Productivity” value is 1.04 g/L day in the assay on Chlorella (Day 1, organic carbon source fed by pH-auxostat, 25° C., 24 hour photoperiod); 1.21 g/L day with Chlorella (Day 2); 1.27 g/L day in the assay with Chlorella (Day 3); 1.97 g/L day in the assay on Chlorella (Day 4); 1.40 g/L day in the assay with Chlorella (Day 5).
